Reference: patent US20210338761A1, “COMPOSITION FOR PREVENTING, AMELIORATING, OR TREATING SLEEP DISTURBANCE COMPRISING EXTRACT OF FRAXINUS SP. PLANT AS EFFECTIVE COMPONENT” (KOREA INSTITUTE OF ORIENTAL MEDICINE, priority 2018, published 2021)

Tests used:
Format in all cases: in vivo, C57BL/6 mouse
Settings in all cases: 15 mg/kg orally for 14 days, foot pad electric shock and restraint stress, cerebral cortex obtained on Day 17
[1] = test system: neuropeptide Y mRNA; assay: mRNA expression level of neuropeptide Y in cerebral cortex, stress-induced sleep disturbance model (real-time PCR)
Description: (§1) 100 mg/kg extract of Fraxinus rhynchophylla and 15 mg/kg doxepin (Sigma-Aldrich, St. Louis, Mo., USA) were dissolved respectively in PBS to the designated concentration. After aliquoting them according to the required administration amount, it was orally administered in an amount of 0.1 ml for each, one hour before applying stress. To the normal and stress control, PBS was orally administered in an amount of 0.1 ml for each.
(§2) Seven-week old male C57BL/6 mouse with bodyweight of 20 to 22 g was obtained from DBL Co., Ltd. (Eumseong-Gun, Chungcheong-Bukdo, Korea). […]
(§3) Expression pattern of the gene in cerebral cortex, which has been removed from each test animal upon the completion of the test, was determined by real-time PCR. The cerebral cortex tissues of a mouse were treated with RNAzolB (Tel-Test) to extract RNA, and then analyzed by cDNA and real-time PCR instrument using One-step SYBR Green PCR kit (AB science). […] Real time quantitative PCR was carried out by using Applied Biosystems 7500 Real-Time PCR system (Applied Biosystems, USA).
Thereafter, foot pad electric shock and restrain were applied to the mouse and then cerebral cortex was collected by autopsy of the mouse to obtain RNA. cDNA was then prepared and mRNA expression of neuropeptide Y was analyzed by using real-time gene analyzer.

[2] = test system: GAD65 (glutamic acid decarboxylase 65) mRNA; assay: mRNA expression level of GAD65 in cerebral cortex, stress-induced sleep disturbance model (real-time PCR)
Description: as §1, §2, §3
(§4) Thereafter, foot pad electric shock and restrain were applied to the mouse and then cerebral cortex was collected by autopsy of the mouse to obtain RNA. cDNA was then prepared and mRNA expression level of GAD65 and GAD67 was analyzed by using real-time gene analyzer.

[3] = test system: GAD67 (glutamic acid decarboxylase 67) mRNA; assay: mRNA expression level of GAD67 in cerebral cortex, stress-induced sleep disturbance model (real-time PCR)
Description: as §1, §2, §3, §4

CN(C)CCC=C1c2ccccc2COc2ccccc21 [doxepin]
mRNA expression level of neuropeptide Y in cerebral cortex compared to the control [1]: increased in statistically significant sense
mRNA expression level of neuropeptide Y in cerebral cortex compared to the control ([1]; listed as positive control): higher expression in significant sense
mRNA expression level of GAD65 in cerebral cortex compared to the control [2]: tend to show higher expression
mRNA expression level of GAD67 in cerebral cortex compared to the control [3]: tend to show higher expression
